One series concerns melanoma B-16. The following applies: against melanoma B-16; cited from earlier work.
Another series deals with various bacteria. The following applies: against various bacteria / a variety of bacteria; cited from earlier work.
In a further series the test system is HeLaS3 cells. The series can be described thus: Growth Inhibitory Effect against HeLaS3 Cells. It is filed as cell-based. The following applies: Homo sapiens, HeLa S3; 72 hours, Neutral Red staining. On the procedure: HeLaS3 cells were suspended in a medium comprising MEM medium, 10% fetal calf serum and 2 mM glutamine (hereinafter referred to as medium A) to a concentration of 3×10^4 cells/ml. The cell suspension thus prepared was put into wells of a 96-well microtiter plate in an amount of 0.1 ml per well. After incubation at 37° C. for 20 hours in a CO2 incubator, Compound (I) appropriately diluted with medium A was added to each well in an amount of 0.05 ml.
The cells were further cultured at 37° C. for 72 hours in the CO2 -incubator and the culture supernatant was removed. After the residue was washed once with phosphate buffer saline (PBS), a medium comprising medium A and 0.02% Neutral Red was added in an amount of 0.1 ml per well. Then, the cells were cultured at 37° C. for one hour in the CO2 -incubator, whereby the cells were stained. After removal of the culture supernatant, the residue was washed once with physiological saline. The pigment was extracted with 0.001N hydrochloric acid/30% ethanol and the absorbance of the extract was measured at 550 nm using a microplate reader. The concentration of the test compound at which the growth of the cells is inhibited by 50% (IC50) was calculated by comparing the absorbance of untreated cells with those of the cells treated with the test compound at known concentrations.

For another series, the system named is ddY-strain male mice. The series can be described thus: Acute Toxicity Test. It is filed as in vivo. The note with it: intravenous; mortality observed for 14 days. The protocol: A test compound was intravenously administered to ddY-strain male mice each weighing 20±1 g. MLD (the minimum lethal dose) was determined by observing the mortality for 14 days after the administration.

A further series has as its system Sarcoma 180 tumor. The series can be described thus: Therapeutic Effect against Sarcoma 180 Tumor. It is filed as in vivo, male ddY-strain mice. The following applies: intravenous, single administration one day after implantation, determined seven days after implantation. The protocol:
Five male ddY-strain mice each weighing 18 to 20 g were used for each group as test animals, and 5×10^5 Sarcoma 180 tumor cells were implanted subcutaneously into the animals at the axilla. One day after the implantation, 0.2 ml of physiological saline containing Compound (I) at the concentration indicated in Table 2 was intravenously administered to each mouse. T/C [T: average tumor volume (mm^3) of the group treated with the test compound, C: average tumor volume (mm^3) of the control group which received an intravenous administration of 0.2 ml of physiological saline]was determined seven days after the implant

Structures are written as SMILES.

`COC(=O)C1(C)Nc2c(O)cc3c(c2C1=O)CC(Cl)CN3C(=O)c1cc2cc(OC)c(OC)c(OC)c2[nH]1` (stereo not shown) [DC-89Al]: the antitumor activity entry in the series on melanoma B-16 is “show an antitumor activity against melanoma B-16”. The antibacterial activity entry in the series on various bacteria is given as “exhibit an antibacterial activity against various bacteria”.

Turning to `COC(=O)c1c(C)[nH]c2c1C13CC1CN(C(=O)/C=C/c1ccc(OC)cc1)C3=CC2=O` (stereo not shown) [Compound 2], the IC50 – broadly, the midpoint of a concentration-inhibition curve – in the series with HeLaS3 cells came out at 180 pM. For the same compound, the “Acute Toxicity (MLD), minimum lethal dose” value (shortened to “Acute Toxicity (MLD)”) in the series on ddY-strain male mice is 2.0 mg/kg.

`COC(=O)C1(C)Nc2c(O)cc3c(c2C1=O)C(CBr)CN3C(=O)c1cc2cc(OC)c(OC)c(OC)c2[nH]1` (stereo not shown) [DC-89B2]: in the series with melanoma B-16, the antitumor activity entry was “show an antitumor activity against melanoma B-16”. For the same compound, the antibacterial activity result with various bacteria is listed as “exhibit an antibacterial activity against various bacteria”.

Take `COC(=O)c1c(C)[nH]c2c(OC(=O)N3CCN(C)CC3)cc3c(c12)C(CBr)CN3C(=O)/C=C/c1ccc(OC)cc1` (stereo not shown) [Compound 7]: the “Acute Toxicity (MLD)” value in the series with ddY-strain male mice is given as 8.0 mg/kg. Moreover, the “T/C (average tumor volume treated / control)” value in the series on Sarcoma 180 tumor (4.0 mg/kg) came out at 0.20.

For the compound `COC(=O)c1c(C)[nH]c2c(OC(=O)N(C)C)cc3c(c12)C(CBr)CN3C(=O)/C=C/c1ccc(OC)cc1` (stereo not shown) [Compound 3], in the series on HeLaS3 cells, the IC50 is 11000 pM. Also, in the series on ddY-strain male mice, the “Acute Toxicity (MLD)” value is given as > 8.0 mg/kg. The “T/C (average tumor volume treated / control)” value in the series on Sarcoma 180 tumor (8.0 mg/kg) turned out to be 0.027.

In the case of `COC(=O)c1c(C)[nH]c2c(OC(=O)N3CCN(CC(=O)NC(C)C)CC3)cc3c(c12)C(CBr)CN3C(=O)/C=C/c1ccc(OC)cc1` (stereo not shown) [Compound 11], the “Acute Toxicity (MLD)” value with ddY-strain male mice is recorded as > 8.0 mg/kg. The “T/C (average tumor volume treated / control)” value in the series with Sarcoma 180 tumor (8.0 mg/kg) is reported as 0.12.

Regarding `COC(=O)c1c(C)[nH]c2c(OC(=O)Nc3ccccc3)cc3c(c12)C(CBr)CN3C(=O)/C=C/c1ccc(OC)cc1` (stereo not shown) [Compound 12], the “Acute Toxicity (MLD)” value with ddY-strain male mice is recorded as 2.0 mg/kg. Also, in the series on Sarcoma 180 tumor (2.0 mg/kg), the “T/C (average tumor volume treated / control)” value came out at 0.25.

As to `COC(=O)C1(C)Nc2c(O)cc3c(c2C1=O)CC(Br)CN3C(=O)c1cc2cc(OC)c(OC)c(OC)c2[nH]1` (stereo not shown) [DC-89B1], the antitumor activity result in the series on melanoma B-16 is “show an antitumor activity against melanoma B-16”. Besides, in the series with various bacteria, the antibacterial activity result is on record as “exhibit an antibacterial activity against various bacteria”.

With `COC(=O)C1(C)NC2=C(C1=O)C13CC1CN(C(=O)c1cc4cc(OC)c(OC)c(OC)c4[nH]1)C3=CC2=O` (stereo not shown) [DC-88A], the antitumor activity entry with melanoma B-16 was “exhibit an anti-tumor activity against melanoma B-16”. In addition, the antibacterial activity entry with various bacteria is “show an antibacterial activity against a variety of bacteria”.

Regarding `COC(=O)c1c(C)[nH]c2c(OC(=O)N3CCCCC3)cc3c(c12)C(CBr)CN3C(=O)/C=C/c1ccc(OC)cc1` (stereo not shown) [Compound 4], the IC50 with HeLaS3 cells is < 240 pM. Besides, the “Acute Toxicity (MLD)” value in the series on ddY-strain male mice is reported as > 8.0 mg/kg.

In the case of `COC(=O)c1c(C)[nH]c2c(OC(=O)N3CCCC3)cc3c(c12)C(CBr)CN3C(=O)/C=C/c1ccc(OC)cc1` (stereo not shown) [Compound 5], the “Acute Toxicity (MLD)” value with ddY-strain male mice is > 8.0 mg/kg.

As for `COC(=O)C1(C)Nc2c(O)cc3c(c2C1=O)C(CCl)CN3C(=O)c1cc2cc(OC)c(OC)c(OC)c2[nH]1` (stereo not shown) [DC-89A2], the antitumor activity entry in the series on melanoma B-16 is “show an antitumor activity against melanoma B-16”. Moreover, in the series with various bacteria, the antibacterial activity entry is listed as “exhibit an antibacterial activity against various bacteria”.

As to `COC(=O)c1cc2c([nH]1)C(=O)C=C1N(C(=O)c3cc4cc(OC)c(OC)c(OC)c4[nH]3)CC3CC123` (stereo not shown) [DC113], the antitumor activity result in the series with melanoma B-16 is on record as “exhibit an anti-tumor activity against melanoma B-16”. Also, the antibacterial activity result with various bacteria is reported as “show an antibacterial activity against a variety of bacteria”.

As for `COC(=O)c1c(C)[nH]c2c(OC(=O)N3CCC(N4CCCCC4)CC3)cc3c(c12)C(CBr)CN3C(=O)/C=C/c1ccc(OC)cc1` (stereo not shown) [Compound 9], in the series on ddY-strain male mice, the “Acute Toxicity (MLD)” value turned out to be 4.0 mg/kg. Besides, the “T/C (average tumor volume treated / control)” value in the series with Sarcoma 180 tumor (4.0 mg/kg) is reported as 0.17.

The record behind these values is US5258383A, “DC-89 derivatives” (priority 1991, dated 1993).
